What was measured:
[1] = molecular target: Wee1-like protein kinase (Homo sapiens) (UniProt P30291); assay: Selectivity interaction (KinomeScan (DiscoverX)) EUB0001049a WEE1; conditions: at 1 µM
[2] = molecular target: Ephrin type-A receptor 7 (Homo sapiens) (UniProt Q15375); assay: Selectivity interaction (KinomeScan (DiscoverX)) EUB0000229b EPHA7; conditions: at 10 µM
[3] = molecular target: T1, Ephrin type-B receptor 3 (Homo sapiens) (UniProt P54753); assay: Selectivity interaction (Kinase panel (Invitrogen)) EUB0000639a EPHB3; conditions: at 200 nM
T1 sequence (whole entry): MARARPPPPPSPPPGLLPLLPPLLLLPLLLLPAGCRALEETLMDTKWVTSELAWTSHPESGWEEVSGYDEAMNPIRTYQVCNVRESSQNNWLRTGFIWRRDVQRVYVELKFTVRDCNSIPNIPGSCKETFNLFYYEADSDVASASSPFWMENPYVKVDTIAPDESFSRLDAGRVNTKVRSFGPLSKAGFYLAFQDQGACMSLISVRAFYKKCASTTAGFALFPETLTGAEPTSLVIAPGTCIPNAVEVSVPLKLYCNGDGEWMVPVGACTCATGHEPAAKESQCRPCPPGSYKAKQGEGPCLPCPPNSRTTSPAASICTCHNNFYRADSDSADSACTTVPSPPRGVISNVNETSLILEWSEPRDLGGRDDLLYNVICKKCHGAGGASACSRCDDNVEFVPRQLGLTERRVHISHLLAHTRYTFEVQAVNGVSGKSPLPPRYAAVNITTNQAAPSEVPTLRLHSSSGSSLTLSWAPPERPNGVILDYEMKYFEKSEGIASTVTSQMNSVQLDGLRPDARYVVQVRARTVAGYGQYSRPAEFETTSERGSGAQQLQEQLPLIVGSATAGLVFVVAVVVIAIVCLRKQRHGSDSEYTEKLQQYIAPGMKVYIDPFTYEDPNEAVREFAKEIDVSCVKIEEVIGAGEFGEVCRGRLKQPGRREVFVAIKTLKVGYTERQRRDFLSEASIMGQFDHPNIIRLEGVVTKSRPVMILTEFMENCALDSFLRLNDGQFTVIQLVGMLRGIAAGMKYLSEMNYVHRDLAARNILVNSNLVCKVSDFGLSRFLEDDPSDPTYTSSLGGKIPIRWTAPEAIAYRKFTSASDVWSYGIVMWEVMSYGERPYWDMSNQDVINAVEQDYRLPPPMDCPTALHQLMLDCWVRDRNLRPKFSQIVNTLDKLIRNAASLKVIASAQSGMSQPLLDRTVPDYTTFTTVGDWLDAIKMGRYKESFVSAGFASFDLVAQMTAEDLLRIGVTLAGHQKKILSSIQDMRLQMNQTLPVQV

[4] = molecular target: T2, Serine/threonine-protein kinase TBK1 (Homo sapiens) (UniProt Q9UHD2); assay: Selectivity interaction (ActivX KiNativ screen (kinase selectivity in THP-1 cell lysates)) EUB0000639a TBK1; format: subcellular; conditions: lysate, at 1 µM
T2 sequence (whole entry): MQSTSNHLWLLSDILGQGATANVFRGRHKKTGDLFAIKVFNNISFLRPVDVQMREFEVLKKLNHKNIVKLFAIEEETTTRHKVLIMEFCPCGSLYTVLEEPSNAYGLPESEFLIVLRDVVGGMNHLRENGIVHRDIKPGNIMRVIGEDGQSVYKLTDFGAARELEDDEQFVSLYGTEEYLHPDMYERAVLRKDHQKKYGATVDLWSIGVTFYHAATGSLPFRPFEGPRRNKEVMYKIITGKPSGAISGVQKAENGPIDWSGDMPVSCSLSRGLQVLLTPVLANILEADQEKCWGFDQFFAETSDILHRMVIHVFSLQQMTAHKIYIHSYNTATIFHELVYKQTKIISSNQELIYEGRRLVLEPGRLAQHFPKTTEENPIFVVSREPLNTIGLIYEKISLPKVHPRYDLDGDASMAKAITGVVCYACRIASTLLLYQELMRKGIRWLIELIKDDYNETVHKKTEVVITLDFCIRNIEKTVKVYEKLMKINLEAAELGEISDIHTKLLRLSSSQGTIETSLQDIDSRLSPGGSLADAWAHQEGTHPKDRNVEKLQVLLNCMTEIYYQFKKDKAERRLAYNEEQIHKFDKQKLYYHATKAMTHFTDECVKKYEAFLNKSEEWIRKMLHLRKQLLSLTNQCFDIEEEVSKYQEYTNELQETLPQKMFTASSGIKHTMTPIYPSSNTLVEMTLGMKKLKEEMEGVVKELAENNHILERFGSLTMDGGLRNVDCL

[5] = molecular target: Cyclin-dependent kinase 14 (Homo sapiens) (UniProt O94921); assay: Selectivity interaction (Ambit KINOMEscan and KiNATiv profiling in Jurkat cells) EUB0000090b CDK14; format: cell-based; conditions: at 1 µM
[6] = molecular target: MAP kinase-interacting serine/threonine-protein kinase 1 (Homo sapiens) (UniProt Q9BUB5); assay: Selectivity interaction (KinomeScan (DiscoverX)) EUB0000618a MKNK1; conditions: at 10 µM
[7] = molecular target: Proto-oncogene tyrosine-protein kinase receptor Ret (Homo sapiens, UniProt P07949); assay: (§1) Selectivity interaction (KinomeScan (DiscoverX)) EUB0000607a RET; conditions: at 10 µM
[8] = test system: Proto-oncogene tyrosine-protein kinase receptor Ret (Homo sapiens), P07949 [M918T]; assay: as §1; conditions: at 10 µM
[9] = test system: Proto-oncogene tyrosine-protein kinase receptor Ret (Homo sapiens), P07949 [V804M]; assay: as §1; conditions: at 10 µM
[10] = test system: Proto-oncogene tyrosine-protein kinase receptor Ret (Homo sapiens), P07949 [V804L]; assay: as §1; conditions: at 10 µM
[11] = molecular target: Delta-type opioid receptor (Homo sapiens, UniProt P41143); assay: Selectivity interaction (Panel of non-epigenetic targets (kinases, GPCRs, ion channels, and transporters, Eurofins) ) EUB0000271b OPRD1; conditions: at 1 µM
Delta-type opioid receptor, sequence (P41143 whole entry): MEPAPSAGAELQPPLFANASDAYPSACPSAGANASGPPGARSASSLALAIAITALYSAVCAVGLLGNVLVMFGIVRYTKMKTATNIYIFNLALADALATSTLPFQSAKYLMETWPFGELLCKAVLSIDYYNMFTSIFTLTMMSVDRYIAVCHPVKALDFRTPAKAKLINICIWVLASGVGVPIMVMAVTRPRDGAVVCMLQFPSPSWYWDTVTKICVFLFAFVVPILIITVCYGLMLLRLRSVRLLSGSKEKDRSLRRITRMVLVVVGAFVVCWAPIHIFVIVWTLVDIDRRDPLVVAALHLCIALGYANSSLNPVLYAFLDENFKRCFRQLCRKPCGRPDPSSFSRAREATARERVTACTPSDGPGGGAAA

Proto-oncogene tyrosine-protein kinase receptor Ret (Homo sapiens), P07949 [V804L], sequence (P07949 whole entry V804L): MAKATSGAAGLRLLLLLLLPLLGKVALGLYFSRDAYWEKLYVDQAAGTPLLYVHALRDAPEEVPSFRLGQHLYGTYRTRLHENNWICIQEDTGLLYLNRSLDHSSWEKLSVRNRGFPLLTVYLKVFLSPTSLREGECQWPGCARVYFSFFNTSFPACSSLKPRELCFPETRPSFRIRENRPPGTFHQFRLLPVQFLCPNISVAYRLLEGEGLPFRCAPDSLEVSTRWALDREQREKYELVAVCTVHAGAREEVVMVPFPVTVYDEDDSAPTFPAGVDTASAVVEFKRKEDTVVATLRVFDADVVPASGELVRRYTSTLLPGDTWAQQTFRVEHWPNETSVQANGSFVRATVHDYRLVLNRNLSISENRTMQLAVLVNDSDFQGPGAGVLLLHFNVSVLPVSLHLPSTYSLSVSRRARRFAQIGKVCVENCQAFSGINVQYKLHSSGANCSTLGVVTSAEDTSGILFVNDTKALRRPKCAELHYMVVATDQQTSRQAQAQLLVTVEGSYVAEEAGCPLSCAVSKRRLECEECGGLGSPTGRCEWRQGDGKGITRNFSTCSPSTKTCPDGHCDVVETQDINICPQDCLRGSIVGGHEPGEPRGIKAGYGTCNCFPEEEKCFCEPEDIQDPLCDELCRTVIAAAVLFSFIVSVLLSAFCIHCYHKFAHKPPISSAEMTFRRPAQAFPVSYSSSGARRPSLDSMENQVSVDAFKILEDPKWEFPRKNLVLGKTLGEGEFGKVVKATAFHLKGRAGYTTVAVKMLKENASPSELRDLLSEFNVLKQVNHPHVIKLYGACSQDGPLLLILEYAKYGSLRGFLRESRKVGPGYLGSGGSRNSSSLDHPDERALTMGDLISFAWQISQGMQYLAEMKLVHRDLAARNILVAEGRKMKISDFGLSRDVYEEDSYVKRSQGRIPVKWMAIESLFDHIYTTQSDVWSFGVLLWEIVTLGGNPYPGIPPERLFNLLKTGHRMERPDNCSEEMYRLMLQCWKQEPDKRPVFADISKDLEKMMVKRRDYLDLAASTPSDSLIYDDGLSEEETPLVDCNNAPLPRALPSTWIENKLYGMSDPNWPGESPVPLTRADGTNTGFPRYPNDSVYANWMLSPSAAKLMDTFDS
Proto-oncogene tyrosine-protein kinase receptor Ret (Homo sapiens), P07949 [M918T], sequence (P07949 whole entry M918T): as the sequence (P07949 whole entry V804L) above, with L804V, M918T counted along it
MAP kinase-interacting serine/threonine-protein kinase 1 (Homo sapiens), sequence (Q9BUB5 whole entry, looked up): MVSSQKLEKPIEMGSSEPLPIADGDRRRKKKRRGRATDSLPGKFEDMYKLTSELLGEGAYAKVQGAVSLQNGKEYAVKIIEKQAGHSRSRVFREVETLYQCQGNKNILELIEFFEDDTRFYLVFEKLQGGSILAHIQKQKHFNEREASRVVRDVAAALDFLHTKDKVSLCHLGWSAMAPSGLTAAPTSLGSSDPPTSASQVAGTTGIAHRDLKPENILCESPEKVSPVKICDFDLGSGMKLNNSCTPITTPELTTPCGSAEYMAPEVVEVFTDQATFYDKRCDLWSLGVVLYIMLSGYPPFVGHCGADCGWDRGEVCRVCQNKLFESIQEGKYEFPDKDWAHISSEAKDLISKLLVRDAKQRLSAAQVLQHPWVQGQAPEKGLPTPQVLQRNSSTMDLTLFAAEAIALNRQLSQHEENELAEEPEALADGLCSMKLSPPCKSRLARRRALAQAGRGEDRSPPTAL
Proto-oncogene tyrosine-protein kinase receptor Ret (Homo sapiens), P07949 [V804M], sequence (P07949 whole entry V804M): as the sequence (P07949 whole entry V804L) above, with L804M counted along it
Ephrin type-A receptor 7 (Homo sapiens), sequence (Q15375 28-998 limits assumed): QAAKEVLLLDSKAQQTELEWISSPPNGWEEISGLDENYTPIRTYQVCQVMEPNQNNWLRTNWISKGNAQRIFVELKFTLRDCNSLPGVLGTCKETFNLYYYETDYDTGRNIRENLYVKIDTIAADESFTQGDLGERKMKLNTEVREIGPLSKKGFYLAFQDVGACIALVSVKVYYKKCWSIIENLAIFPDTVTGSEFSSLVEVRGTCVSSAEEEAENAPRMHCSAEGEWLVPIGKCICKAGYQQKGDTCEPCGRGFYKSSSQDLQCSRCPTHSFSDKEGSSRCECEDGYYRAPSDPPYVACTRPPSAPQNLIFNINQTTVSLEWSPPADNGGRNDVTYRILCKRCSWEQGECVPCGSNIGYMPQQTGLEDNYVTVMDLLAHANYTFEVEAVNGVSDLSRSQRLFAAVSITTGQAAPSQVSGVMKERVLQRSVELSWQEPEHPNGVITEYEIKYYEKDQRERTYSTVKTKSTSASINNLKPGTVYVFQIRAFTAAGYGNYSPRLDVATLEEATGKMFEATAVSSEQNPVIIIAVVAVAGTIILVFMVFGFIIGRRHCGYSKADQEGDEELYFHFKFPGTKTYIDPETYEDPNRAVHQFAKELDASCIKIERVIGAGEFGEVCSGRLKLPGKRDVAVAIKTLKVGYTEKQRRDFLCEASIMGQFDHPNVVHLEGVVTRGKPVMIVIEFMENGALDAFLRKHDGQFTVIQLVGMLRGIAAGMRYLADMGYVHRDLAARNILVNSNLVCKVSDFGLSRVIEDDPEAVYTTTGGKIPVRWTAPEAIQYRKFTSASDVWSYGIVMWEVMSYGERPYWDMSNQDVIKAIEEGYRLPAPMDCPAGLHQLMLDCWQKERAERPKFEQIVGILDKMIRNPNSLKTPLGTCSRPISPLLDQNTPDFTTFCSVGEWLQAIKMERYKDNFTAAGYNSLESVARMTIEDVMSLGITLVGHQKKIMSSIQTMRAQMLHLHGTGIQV
Cyclin-dependent kinase 14 (Homo sapiens), sequence (O94921 whole entry): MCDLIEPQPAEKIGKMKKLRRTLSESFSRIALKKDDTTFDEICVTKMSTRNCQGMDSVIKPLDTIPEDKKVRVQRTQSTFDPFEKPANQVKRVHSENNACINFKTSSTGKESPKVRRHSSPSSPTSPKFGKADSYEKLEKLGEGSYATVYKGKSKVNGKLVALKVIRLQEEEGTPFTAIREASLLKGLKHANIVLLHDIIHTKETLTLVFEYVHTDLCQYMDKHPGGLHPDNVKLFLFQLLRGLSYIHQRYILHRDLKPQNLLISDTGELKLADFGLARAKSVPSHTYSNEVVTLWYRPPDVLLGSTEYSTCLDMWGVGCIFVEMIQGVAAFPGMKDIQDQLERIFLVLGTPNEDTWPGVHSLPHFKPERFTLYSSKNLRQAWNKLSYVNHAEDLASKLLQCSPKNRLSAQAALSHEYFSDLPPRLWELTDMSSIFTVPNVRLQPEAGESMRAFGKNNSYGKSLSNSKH
Proto-oncogene tyrosine-protein kinase receptor Ret, sequence (P07949 whole entry): as the sequence (P07949 whole entry V804L) above, with L804V counted along it
Wee1-like protein kinase (Homo sapiens), sequence (P30291 whole entry, looked up): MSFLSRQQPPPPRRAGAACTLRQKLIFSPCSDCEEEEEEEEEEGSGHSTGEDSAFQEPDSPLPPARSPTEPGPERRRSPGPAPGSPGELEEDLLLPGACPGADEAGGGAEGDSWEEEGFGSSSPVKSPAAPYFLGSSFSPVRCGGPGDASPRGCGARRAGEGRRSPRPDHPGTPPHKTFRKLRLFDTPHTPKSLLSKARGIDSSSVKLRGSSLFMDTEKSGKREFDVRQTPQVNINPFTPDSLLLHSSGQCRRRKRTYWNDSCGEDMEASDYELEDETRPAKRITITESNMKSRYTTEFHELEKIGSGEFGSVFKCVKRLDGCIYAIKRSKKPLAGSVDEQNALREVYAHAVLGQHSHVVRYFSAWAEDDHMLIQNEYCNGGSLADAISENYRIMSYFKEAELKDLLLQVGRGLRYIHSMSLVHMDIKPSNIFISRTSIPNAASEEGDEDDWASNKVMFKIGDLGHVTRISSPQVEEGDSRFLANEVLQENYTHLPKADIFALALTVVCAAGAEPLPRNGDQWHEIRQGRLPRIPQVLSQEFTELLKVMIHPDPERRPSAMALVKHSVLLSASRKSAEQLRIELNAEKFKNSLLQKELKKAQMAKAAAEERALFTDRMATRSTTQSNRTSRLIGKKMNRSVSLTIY

For `COc1cc(Nc2nc(C)cc(-c3cnn4nc(OC)ccc34)n2)cc(C(F)(F)F)c1`, the % of control [1] was 95%.

`COc1cc(N(C)c2ccnc3ccc(C(F)(F)F)cc23)cc(OC)c1OC` showed a % binding [2] of 99%.

Compound `CC[C@@H]1[C@H](F)C(=O)N[C@@H]1COc1nccc2cc(C(N)=O)c(OC)cc12` [ZIMLOVISERTIB] has a % of inhibition [3] of 4.83% and a % of inhibition [4] of 7.6%.

Compound `CN(C)C/C=C/C(=O)Nc1ccc(C(=O)N2CCCC(Nc3ncc(Cl)c(-c4c[nH]c5ccccc45)n3)C2)cc1` (stereo unspecified) has a % of control [5] of 69%.

`O[C@H]1CC[C@H](Nc2ncc3nc(Nc4c(F)cc(F)cc4F)n([C@H]4CCOC4)c3n2)CC1` was tested, and the % of control [6] was 94%.

`CNC(=O)Nc1ccc(-c2nc(N3CC4CCC(C3)O4)c3cnn(C4CCC5(CC4)OCCO5)c3n2)cc1` was tested, and the % of control [7] was 91%, the % of control [8] was 73% and the % of control [9] was 100%. For the same compound, the % of control [10] was 85%.

With `Cc1cc(C)cc([C@@H]2c3cc(C)ccc3NC(=O)CN2C(=O)c2ccc(Br)s2)c1` the % of inhibition [11] was -20%.
